Measurements from patent publication US20130245081A1, “Compositions and Methods for Treating Amyotrophic Lateral Sclerosis” (priority 2009, published 2013).

Assay: clinical
Conditions: for CL/F / Fe / Ue / λz: Day 7, fasted; for CL renal: urine and plasma
From the text: A total of 54 subjects (30 subjects in Study CL001 and 24 subjects in Study CL002) were enrolled. Healthy, non-smoking, male and female subjects 30 to 60 years of age, inclusive, with normal or clinically acceptable physical examination and electrocardiogram (ECG) findings, systolic (90 to 140 mmHg) and diastolic (50 to 90 mmHg) blood pressure, and resting heart rate (50 to 100 bpm) who were willing to provide signed, written informed consent were eligible for enrollment. Female volunteers had to be of non-childbearing potential with negative pregnancy test results at screening and clinic check-in. Subjects with any history of neurodegenerative illnesses were excluded. The use of over-the-counter medications within 7 days prior to enrollment or prescription medications within 12 weeks prior to enrollment was prohibited.
In the second study, subjects were enrolled in 3 successive double-blind, placebo-controlled, panels of 8 subjects (n=6 active, n=2 placebo per panel).
Matching placebo capsules contained equivalent weights of microcrystalline cellulose. Capsules were administered orally with water. […] Subjects in the fasted cohorts were required to fast overnight for a minimum of 10 hours before dose administration. Subjects in the food cohort were required to fast overnight for a minimum of 10 hours before dose administration, with exception of the high fat/high calorie meal that was administered 30 minutes prior to drug administration. […] All available safety data were reviewed under blinded conditions to monitor for serious safety or tolerability events prior to proceeding with dose escalations.
In both studies, a complete collection was attempted for each urine sample interval.
Blood samples were collected into a 10 mL dipotassium ethylenediaminetetraacetic acid (K2-EDTA) Vacutainer® via an indwelling peripheral intravenous cannula or by direct venipuncture. Within 15 minutes of collection, the samples were centrifuged at 3000 rpm for 10 minutes at 4° C. After centrifugation, the plasma was divided into 2 aliquots of at least 1.5 mL each, placed into polypropylene containers, frozen, and stored at −20° C. until they were shipped for analysis.
Urine collected in each interval was well mixed, the pH was recorded, the total volume (or the weight and specific gravity) was recorded, and 2 aliquots of 20 mL each were collected into polypropylene containers and stored at −20° C. until they were shipped for analysis. All plasma and urine sample were shipped frozen on dry ice in 2 separate shipments per group (1 set of aliquots per shipment) to Eurofins AvTech Laboratories Inc. (Kalamazoo, Mich.) for bioanalytical analysis.
Plasma and urine concentrations were measured using validated liquid chromatography/mass spectrometry/mass spectrometry (LC/MS/MS) methods. […] The analytical procedure for analysis of plasma samples used a 100 μL aliquot of K2EDTA human plasma. The plasma sample was spiked with 20 μL of working internal standard solution and 20 μL of type 1 water for subject samples and QCs and 20 μL of the appropriate intermediate standard solution for standards. One hundred microliters ([…]) of 50% ammonium hydroxide solution was added to the sample followed by vortex mixing. One milliliter (1 mL) of tertbutyl methyl ether was then added and the sample was vortexed to extract the analyte and internal standard into the organic layer, followed by separation using flash freezing. The organic layer was decanted, evaporated to dryness, and the sample was reconstituted with 0.5 mL of reconstitution solution (0.1% ammonium hydroxide in 50:50 methanol; type 1 water (v/v/v)). A 10 μL aliquot of this reconstituted sample was injected into an LC/MS/MS system for analysis.

[1] = both, human, plasma, oral, 50 mg
[2] = both, human, plasma, oral, 100 mg
[3] = both, human, plasma, oral, 150 mg

Structure (SMILES): CCCN[C@@H]1CCc2nc(N)sc2C1 [dexpramipexole, (6R)-2-amino-4,5,6,7-tetrahydro-6-(propylamino)benzothiazole]
- CL/F (50 mg Twice Daily): 437 ± 60.8 mL/min
- Fe (50 mg Twice Daily): 87.2 ± 10.26 % dose
- Ue (50 mg Twice Daily): 32.5 ± 3.82 mg
- λz (50 mg Twice Daily): 0.1039 ± 0.0193 h⁻¹
- CL/F (100 mg Twice Daily): 510 ± 57.4 mL/min
- Fe (100 mg Twice Daily): 75.5 ± 3.51 % dose
- Ue (100 mg Twice Daily): 56.3 ± 2.62 mg
- λz (100 mg Twice Daily): 0.0893 ± 0.0117 h⁻¹
- CL/F (150 mg Twice Daily): 507 ± 74.1 mL/min
- Fe (150 mg Twice Daily): 89.6 ± 7.83 % dose
- Ue (150 mg Twice Daily): 100.3 ± 8.76 mg
- λz (150 mg Twice Daily): 0.0895 ± 0.0184 h⁻¹
- dose recovered in the urine as unchanged parent drug (12-hour steady-state dosing period): approximately 84%
- AUC(0-t) [1]: 1450 ± 221 ng·h/mL
- Cmax at 7 day [1]: 191 ± 20.9 ng/mL
- Tmax [1]: 1.75 h
- Vd/F [1]: 255 ± 24 L
- half-life [1]: 6.87 ± 1.29 h
- AUC(0-t) [2]: 2470 ± 304 ng·h/mL
- Cmax at 7 day [2]: 306 ± 54.8 ng/mL
- Tmax [2]: 2.02 h
- Vd/F [2]: 348 ± 61.7 L
- half-life [2]: 7.89 ± 1.19 h
- AUC(0-t) [3]: 3750 ± 575 ng·h/mL
- Cmax [3]: 479 ± 74.6 ng/mL
- Tmax [3]: 2.18 h
- Vd/F [3]: 349 ± 75.8 L
- half-life [3]: 8.05 ± 1.8 h
- CL renal (both, human, oral, 50 mg): 385 ± 90.3 mL/min
- CL renal (both, human, oral, 100 mg): 382 ± 62.7 mL/min
- CL renal (both, human, oral, 150 mg): 451 mL/min
